Results on nine compounds are retold here after article PMC2737144, “Characterization of an Enantioselective Odorant Receptor in the Yellow Fever Mosquito Aedes aegypti” (PLoS ONE, 2009).

For one experiment, the system named is Bombyx mori OR1 (BmOR1).
Experiment: not given
Conditions: oocyte expression system; cited from earlier work.
With `CCC/C=C\C=C\CCCCCCCCCO` [bombykol], the “concentration range of BmOR1 response” value was “micromolar range”.

Another experiment deals with Apis mellifera OR11 (AmOR11).
Experiment: not given
To be noted: Xenopus oocytes; cited from earlier work.
In the case of `CC(=O)CCCCCC=CC(=O)O` [9-oxo-2-decenoic acid], the “concentration range of AmOR11 response” value was “nanomolar range”.

The next experiment has as its target T1, AaOR8/AaOR7 protein complex (Aedes aegypti, UniProt Q16MN0).
T1 sequence (Q16MN0 32-422): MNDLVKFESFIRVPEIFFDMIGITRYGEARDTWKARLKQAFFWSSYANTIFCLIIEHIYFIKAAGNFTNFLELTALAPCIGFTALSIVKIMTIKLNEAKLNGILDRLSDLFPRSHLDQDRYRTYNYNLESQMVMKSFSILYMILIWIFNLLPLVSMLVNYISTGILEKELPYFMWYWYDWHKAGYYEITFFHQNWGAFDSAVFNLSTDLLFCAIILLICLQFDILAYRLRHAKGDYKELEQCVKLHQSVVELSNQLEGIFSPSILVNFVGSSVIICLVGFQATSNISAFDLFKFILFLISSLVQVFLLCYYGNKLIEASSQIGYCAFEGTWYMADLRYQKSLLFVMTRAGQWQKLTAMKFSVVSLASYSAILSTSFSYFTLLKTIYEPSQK
T1 sequence (Q178U6 1-478 partner): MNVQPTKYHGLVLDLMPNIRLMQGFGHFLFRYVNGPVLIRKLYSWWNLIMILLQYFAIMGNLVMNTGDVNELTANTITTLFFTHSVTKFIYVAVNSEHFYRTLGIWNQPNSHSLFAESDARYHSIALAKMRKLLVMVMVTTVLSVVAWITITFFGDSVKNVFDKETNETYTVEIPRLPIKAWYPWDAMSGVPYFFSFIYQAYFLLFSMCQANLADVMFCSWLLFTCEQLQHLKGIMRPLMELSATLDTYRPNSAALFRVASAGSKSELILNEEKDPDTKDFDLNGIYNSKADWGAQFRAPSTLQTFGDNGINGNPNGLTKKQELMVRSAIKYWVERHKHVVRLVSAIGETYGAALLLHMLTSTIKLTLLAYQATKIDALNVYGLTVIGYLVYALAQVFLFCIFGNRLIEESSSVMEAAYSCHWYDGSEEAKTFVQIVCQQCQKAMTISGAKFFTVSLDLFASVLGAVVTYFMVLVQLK
Description: Two-microelectrode voltage clamp of Xenopus oocytes co-expressing AaOr8 and AaOr7; odorant-induced whole-cell currents. The format is cell-based. Conditions: Xenopus oocytes co-expressing AaOR8 and AaOR7, holding potential −80 mV, 8 sec odorant exposure, non-linear regression curve fit; read-out: EC50 (half maximal effective concentration) of AaOR8. How it is done: Along with AaOr8, we co-expressed AaOr7 in Xenopus oocytes and electrophysiological responses (Fig. 1B) to each enantiomer were measured using the two-microelectrode voltage clamp technique. […] We established the concentration-response relationships for each compound (Fig. 1C) and their associated half maximal effective concentration (EC50) as a sensitivity criterion. […] Part of the response to the (S)-(+)-enantiomer may have been caused by the presence of trace amounts (1 part per thousand) of the (R)-(—)-enantiomer (see Material & Methods).
AaOr7 and AaOr8 cRNAs were synthesized from linearized pSP64DV expression vectors (Dr. Zwiebel, Vanderbilt University) using the mMESSAGE mMACHINE SP6 kit (Ambion). Following mechanical disruption of the Xenopus ovaries, stage […] oocytes were treated for 30 min at room temperature under 150 rpm shaking with a 2 mg/mL collagenase (SIGMA, C6895) solution in OR-2 buffer (5 mM HEPES, 1 mM Na2HPO4, 82.5 mM NaCl, and 2.5 mM MgCl2 [pH 7.6]). All procedures were performed in accordance with the NIH Institutional Animal Care and Use Committee and NIH guidelines. Oocytes were subsequently washed 5 times with OR-2 buffer, 5 times with MBSH buffer (10 mM HEPES, 2.4 mM NaHCO3, […], 1 mM KCl, 0.82 mM MgSO4, 0.41 mM CaCl2 and 0.33 mM (CaNO3)2, [pH 7.6]), 5 times with MBSH supplemented with 50 µg/ML gentamycin and 5 times with Ringer's buffer (96 mM NaCl, 2 mM KCl, 5 mM MgCl2, 6H2O, 5 mM HEPES and 0.8 mM CaCl2 [pH 7.6]) supplemented with 5% heat-inactivated horse serum, 50 µg/mL tetracycline, 100 µg/mL streptomycin and 550 µg/mL sodium pyruvate. Individual oocytes were allowed to recover overnight prior to injection with 10 ng of each cRNA and were recorded 4 to 6 days post-injection.
Whole-cell currents were recorded using the two-microelectrode voltage clamp technique, [58]. Odorants were dissolved in dimethyl sulfoxide (DMSO) at a 1∶10 ratio so that stock solutions could be made. Prior to recording, stock solutions were diluted in Ringer's solution [pH 7.6] (96 mM NaCl, 2 mM KCl, 5 mM MgCl2, 5 mM HEPES and 0.8 mM CaCl2) to the indicated concentrations before being applied to Xenopus oocytes in a RC-3Z oocyte recording chamber (Warner Instruments). Oocytes were continuously perfused by either pure Ringer's solution or exposed for 8 sec to serial dilutions of odorants dissolved in Ringer's solution. Odorant-induced currents were recorded with an OC-725C oocyte clamp (Warner Instruments) at a holding potential of −80 mV. Between stimulations, oocytes were allowed to return to their membrane resting potential by washing out the odorants using pure Ringer's solution. Data acquisition and analysis were carried out with Digidata 1440A and pCLAMP10 software (Axon Instruments).
Statistical analyses (GraphPad Prism5 Software, Inc.) of the logEC50 means were performed using an ordinary one-way ANOVA in conjunction with the Tukey Kramer multiple comparison post test (95% confidence interval). […] In all figures, graphical results are shown as means and standard error of the mean for a minimum of six independent oocytes. EC50 values for individual compounds were extrapolated using the non-linear regression curve fit function provided in Prism5.
On to `C=CC(O)CCCC` (stereo not drawn) [1-Hepten-3-ol], for which the EC50 came to 17 µM. Consider `C=CC(O)CCCCCC` (stereo not drawn) [1-Nonen-3-ol], for which the EC50 came to 5.14 µM.

Turning to `C=CC(=O)CCCCC` [1-Octen-3-one], the EC50 stood at 23 µM. Turning to `C=CCC(O)CCCC` (stereo not drawn) [1-Octen-4-ol], the EC50 amounted to 39.1 µM. Consider `CCCCCC(O)CC` (stereo not drawn) [3-Octanol], for which the EC50 was found to be 5.82 µM.

For the compound `C=C[C@H](O)CCCCC` [(R)-(—)-1-octen-3-ol], the EC50 amounted to 0.158 µM. The same measure, in the same setting: in the case of `C=C[C@@H](O)CCCCC` [(S)-(+)-1-octen-3-ol] it was 17.2 µM.
